{"source": "patent US11005049B2", "about": "“Metal complexes” (priority 2013, dated 2021)", "key": {"[1]": {"test_system": "Salmonella typhimurium strain TA100", "procedure": "Compounds V1 and E2 are subjected to a standardised AMES test (bacteria: Salmonella typhimurium; strains TA98, TA100 and TA102). […] The test is carried out by the person skilled in the art employing standard methods which are well known in the prior art. The solvent used is DMSO (dimethyl sulfoxide).\nThe test is carried out both without and also with metabolic activation using an S9 mix."}, "[2]": {"test_system": "Salmonella typhimurium strain TA98", "assay": "standardised AMES test, strain TA98", "type": "cell-based", "source_text": "(§1) The solvent used is DMSO (dimethyl sulfoxide)."}, "[3]": {"test_system": "Salmonella typhimurium strain TA102", "assay": "standardised AMES test, strain TA102", "type": "cell-based"}, "[4]": {"test_system": "Salmonella typhimurium; strains TA98, TA100 and TA102", "assay": "standardised AMES test, overall mutagenicity finding", "type": "cell-based", "source_text": "as §1"}, "[5]": {"details": "metabolic activation using S9 mix, 5 μg/plate"}, "[6]": {"details": "metabolic activation using S9 mix, 15.8 μg/plate"}, "[7]": {"details": "metabolic activation using S9 mix, 50 μg/plate"}, "[8]": {"details": "metabolic activation using S9 mix, 158 μg/plate"}, "[9]": {"details": "metabolic activation using S9 mix, 500 μg/plate"}, "[10]": {"details": "metabolic activation using S9 mix, 1580 μg/plate"}, "[11]": {"details": "metabolic activation using S9 mix, 5000 μg/plate"}, "[12]": {"details": "no metabolic activation, 5 μg/plate"}, "[13]": {"details": "no metabolic activation, 15.8 μg/plate"}, "[14]": {"details": "no metabolic activation, 50 μg/plate"}, "[15]": {"details": "no metabolic activation, 158 μg/plate"}, "[16]": {"details": "no metabolic activation, 500 μg/plate"}, "[17]": {"details": "no metabolic activation, 1580 μg/plate"}, "[18]": {"details": "no metabolic activation, 5000 μg/plate"}}, "note": "Where “and” joins values, the source holds several entries; their conditions need not be identical. Equal values may be shown once. Read-outs that look alike come from different tables or passages of the source.", "data": [{"smiles": "CC(C)(C)c1ccc2cccc(O)c2n1.[Li]", "note": "[Compound E2, lithium 2-tert-butyl-8-hydroxyquinoline]", "values": [{"measurement": "Revertants/plate (mean ± SD) TA100", "setting": "[1]; [5]", "value": "199 ± 4", "unit": "Revertants/plate"}, {"measurement": "Revertants/plate (mean ± SD) TA100", "setting": "[1]; [6]", "value": "132 ± 11", "unit": "Revertants/plate"}, {"measurement": "Revertants/plate (mean ± SD) TA100", "setting": "[1]; [7]", "value": "143 ± 8", "unit": "Revertants/plate"}, {"measurement": "Revertants/plate (mean ± SD) TA100", "setting": "[1]; [8]", "value": "147 ± 8^S Revertants/plate"}, {"measurement": "Revertants/plate (mean ± SD) TA100", "setting": "[1]; [9]", "value": "108 ± 1^SB Revertants/plate"}, {"measurement": "Revertants/plate (mean ± SD) TA100", "setting": "[1]; [10]", "value": "57 ± 16", "unit": "Revertants/plate"}, {"measurement": "Revertants/plate (mean ± SD) TA100", "setting": "[1]; [11]", "value": "4 ± 3", "unit": "Revertants/plate"}, {"measurement": "Revertants/plate (mean ± SD) TA100", "setting": "[1]; [12]", "value": "142 ± 25", "unit": "Revertants/plate"}, {"measurement": "Revertants/plate (mean ± SD) TA100", "setting": "[1]; [13]", "value": "133 ± 8", "unit": "Revertants/plate"}, {"measurement": "Revertants/plate (mean ± SD) TA100", "setting": "[1]; [14]", "value": "104 ± 12", "unit": "Revertants/plate"}, {"measurement": "Revertants/plate (mean ± SD) TA100", "setting": "[1]; [15]", "value": "103 ± 1^S Revertants/plate"}, {"measurement": "Revertants/plate (mean ± SD) TA100", "setting": "[1]; [16]", "value": "62 ± 17^SB Revertants/plate"}, {"measurement": "Revertants/plate (mean ± SD) TA100", "setting": "[1]; [17]", "value": "41 ± 2", "unit": "Revertants/plate"}, {"measurement": "Revertants/plate (mean ± SD) TA100", "setting": "[1]; [18]", "value": "7 ± 3", "unit": "Revertants/plate"}, {"measurement": "Revertants/plate (mean ± SD) TA98", "setting": "[2]; [5]", "value": "24 ± 6", "unit": "Revertants/plate"}, {"measurement": "Revertants/plate (mean ± SD) TA98", "setting": "[2]; [6]", "value": "30 ± 2", "unit": "Revertants/plate"}, {"measurement": "Revertants/plate (mean ± SD) TA98", "setting": "[2]; [7]", "value": "33 ± 4", "unit": "Revertants/plate"}, {"measurement": "Revertants/plate (mean ± SD) TA98", "setting": "[2]; [8]", "value": "30 ± 3^S Revertants/plate"}, {"measurement": "Revertants/plate (mean ± SD) TA98", "setting": "[2]; [9]", "value": "25 ± 7^SB Revertants/plate"}, {"measurement": "Revertants/plate (mean ± SD) TA98", "setting": "[2]; [10]", "value": "18 ± 5^SB Revertants/plate"}, {"measurement": "Revertants/plate (mean ± SD) TA98", "setting": "[2]; [11]", "value": "13 ± 1^SE Revertants/plate"}, {"measurement": "Revertants/plate (mean ± SD) TA98", "setting": "[2]; [12]", "value": "23 ± 11", "unit": "Revertants/plate"}, {"measurement": "Revertants/plate (mean ± SD) TA98", "setting": "[2]; [13]", "value": "29 ± 3", "unit": "Revertants/plate"}, {"measurement": "Revertants/plate (mean ± SD) TA98", "setting": "[2]; [14]", "value": "18 ± 6", "unit": "Revertants/plate"}, {"measurement": "Revertants/plate (mean ± SD) TA98", "setting": "[2]; [15]", "value": "20 ± 6^S Revertants/plate"}, {"measurement": "Revertants/plate (mean ± SD) TA98", "setting": "[2]; [16]", "value": "14 ± 8^SB Revertants/plate"}, {"measurement": "Revertants/plate (mean ± SD) TA98", "setting": "[2]; [17]", "value": "10 ± 4^SB Revertants/plate"}, {"measurement": "Revertants/plate (mean ± SD) TA98", "setting": "[2]; [18]", "value": "17 ± 6^SE Revertants/plate"}, {"measurement": "Revertants/plate (mean ± SD) TA102", "setting": "[3]; [5]", "value": "302 ± 18", "unit": "Revertants/plate"}, {"measurement": "Revertants/plate (mean ± SD) TA102", "setting": "[3]; [6]", "value": "255 ± 8", "unit": "Revertants/plate"}, {"measurement": "Revertants/plate (mean ± SD) TA102", "setting": "[3]; [7]", "value": "245 ± 22", "unit": "Revertants/plate"}, {"measurement": "Revertants/plate (mean ± SD) TA102", "setting": "[3]; [8]", "value": "142 ± 22^S Revertants/plate"}, {"measurement": "Revertants/plate (mean ± SD) TA102", "setting": "[3]; [9]", "value": "89 ± 11^SB Revertants/plate"}, {"measurement": "Revertants/plate (mean ± SD) TA102", "setting": "[3]; [10]", "value": "62 ± 3^SB Revertants/plate"}, {"measurement": "Revertants/plate (mean ± SD) TA102", "setting": "[3]; [11]", "value": "37 ± 1^SE Revertants/plate"}, {"measurement": "Revertants/plate (mean ± SD) TA102", "setting": "[3]; [12]", "value": "224 ± 6", "unit": "Revertants/plate"}, {"measurement": "Revertants/plate (mean ± SD) TA102", "setting": "[3]; [13]", "value": "217 ± 41", "unit": "Revertants/plate"}, {"measurement": "Revertants/plate (mean ± SD) TA102", "setting": "[3]; [14]", "value": "237 ± 11", "unit": "Revertants/plate"}, {"measurement": "Revertants/plate (mean ± SD) TA102", "setting": "[3]; [15]", "value": "180 ± 11^S Revertants/plate"}, {"measurement": "Revertants/plate (mean ± SD) TA102", "setting": "[3]; [16]", "value": "124 ± 1^SB Revertants/plate"}, {"measurement": "Revertants/plate (mean ± SD) TA102", "setting": "[3]; [17]", "value": "51 ± 18^SB Revertants/plate"}, {"measurement": "Revertants/plate (mean ± SD) TA102", "setting": "[3]; [18]", "value": "25 ± 1^SE Revertants/plate"}, {"measurement": "mutagenic effect in AMES test", "setting": "[4]; both without and with metabolic activation using an S9 mix", "value": "No mutagenic effect"}]}, {"smiles": "Oc1cccc2cccnc12.[Li]", "note": "[Liq, lithium 8-hydroxyquinoline, reference compound]", "values": [{"measurement": "Revertants/plate (mean ± SD) TA98", "setting": "[2]; [5]", "value": "31 ± 11", "unit": "Revertants/plate"}, {"measurement": "Revertants/plate (mean ± SD) TA98", "setting": "[2]; [6]", "value": "40 ± 2", "unit": "Revertants/plate"}, {"measurement": "Revertants/plate (mean ± SD) TA98", "setting": "[2]; [7]", "value": "87 ± 1", "unit": "Revertants/plate"}, {"measurement": "Revertants/plate (mean ± SD) TA98", "setting": "[2]; [8]", "value": "100 ± 4", "unit": "Revertants/plate"}, {"measurement": "Revertants/plate (mean ± SD) TA98", "setting": "[2]; [12]", "value": "23 ± 2", "unit": "Revertants/plate"}, {"measurement": "Revertants/plate (mean ± SD) TA98", "setting": "[2]; [13]", "value": "20 ± 4", "unit": "Revertants/plate"}, {"measurement": "Revertants/plate (mean ± SD) TA98", "setting": "[2]; [14]", "value": "22 ± 1", "unit": "Revertants/plate"}, {"measurement": "Revertants/plate (mean ± SD) TA102", "setting": "[3]; [5]", "value": "559 ± 8", "unit": "Revertants/plate"}, {"measurement": "Revertants/plate (mean ± SD) TA102", "setting": "[3]; [6]", "value": "697 ± 8", "unit": "Revertants/plate"}, {"measurement": "Revertants/plate (mean ± SD) TA102", "setting": "[3]; [7]", "value": "1469 ± 27", "unit": "Revertants/plate"}, {"measurement": "Revertants/plate (mean ± SD) TA102", "setting": "[3]; [8]", "value": "911 ± 269", "unit": "Revertants/plate"}, {"measurement": "Revertants/plate (mean ± SD) TA102", "setting": "[3]; [12]", "value": "344 ± 33", "unit": "Revertants/plate"}, {"measurement": "Revertants/plate (mean ± SD) TA102", "setting": "[3]; [13]", "value": "270 ± 30", "unit": "Revertants/plate"}, {"measurement": "Revertants/plate (mean ± SD) TA102", "setting": "[3]; [14]", "value": "257 ± 59", "unit": "Revertants/plate"}, {"measurement": "mutagenicity in AMES test", "setting": "[4]; all three bacteria strains, in the presence of metabolic activation", "value": "significant mutagenicity"}]}, {"smiles": "[N-]=[N+]=[N-]", "note": "[NaN3, sodium azide, reference compound]", "values": [{"measurement": "Revertants/plate (mean ± SD) TA100", "setting": "[1]; no metabolic activation, 2 μg/plate, reference", "value": "1090 ± 35 Revertants/plate and 743 ± 52 Revertants/plate"}]}]}
